How the values were obtained:
[1] = test system: mouse model of BLM-induced lung injury; experiment: mRNA levels of inflammatory cytokines in lung tissue (qRT-PCR); type: in vivo; details: mice, 30, 60, 90 mg/kg
Procedure: The experiment used qRT-PCR technology to determine the mRNA levels of pro-inflammatory cytokines in lung tissue. Real-time quantitative PCR was used to detect the mRNA levels of TNF-α, IL-6, IL-1β, TGF-β and others.
About 30 mg of cryopreserved lung tissue was weighed and homogenized and lysed by adding 200 μL of Trizol (Takara, 9109 #). The fluid after the lysis in the well was collected by the RNA sterilization-grade pipette tip and transferred to the corresponding sterile EP tube. […] of chloroform was added, shaken vigorously for 30 sec, and centrifuged for 15 minutes in a centrifuge at 4° C. at 12000 rpm. The upper aqueous layer was transferred to a new EP tube, an equal volume of isopropanol was used to precipitate the RNA in the aqueous phase, and the tube was allowed to stand at −20° C. for more than 1 hr. And then the tube was centrifuged for 15 min at 4° C. at 12000 rpm, and the supernatant was discarded. 75% ethanol was added to wash the RNA pellet, and then the tube was centrifuged for 15 min at 4° C. at 12000 rpm, and the supernatant was discarded. The tube was placed at room temperature for 10-20 min to dry the RNA pellet. 25-200 μL of RNase-free water was added for dissolution and stored at −80° C.
PrimeScript™ RT Master Mix (Takara, RR036A) was selected for mRNA reverse transcription. Please refer to the instructions for the system. […]

IGF-1R = IGF-1R (Homo sapiens (Human), UniProt P08069); experiment: Enzyme selectivity test (ELISA), IGF-1R; type: biochemical
Chain of IGF-1R (P08069 31-1367, species assumed): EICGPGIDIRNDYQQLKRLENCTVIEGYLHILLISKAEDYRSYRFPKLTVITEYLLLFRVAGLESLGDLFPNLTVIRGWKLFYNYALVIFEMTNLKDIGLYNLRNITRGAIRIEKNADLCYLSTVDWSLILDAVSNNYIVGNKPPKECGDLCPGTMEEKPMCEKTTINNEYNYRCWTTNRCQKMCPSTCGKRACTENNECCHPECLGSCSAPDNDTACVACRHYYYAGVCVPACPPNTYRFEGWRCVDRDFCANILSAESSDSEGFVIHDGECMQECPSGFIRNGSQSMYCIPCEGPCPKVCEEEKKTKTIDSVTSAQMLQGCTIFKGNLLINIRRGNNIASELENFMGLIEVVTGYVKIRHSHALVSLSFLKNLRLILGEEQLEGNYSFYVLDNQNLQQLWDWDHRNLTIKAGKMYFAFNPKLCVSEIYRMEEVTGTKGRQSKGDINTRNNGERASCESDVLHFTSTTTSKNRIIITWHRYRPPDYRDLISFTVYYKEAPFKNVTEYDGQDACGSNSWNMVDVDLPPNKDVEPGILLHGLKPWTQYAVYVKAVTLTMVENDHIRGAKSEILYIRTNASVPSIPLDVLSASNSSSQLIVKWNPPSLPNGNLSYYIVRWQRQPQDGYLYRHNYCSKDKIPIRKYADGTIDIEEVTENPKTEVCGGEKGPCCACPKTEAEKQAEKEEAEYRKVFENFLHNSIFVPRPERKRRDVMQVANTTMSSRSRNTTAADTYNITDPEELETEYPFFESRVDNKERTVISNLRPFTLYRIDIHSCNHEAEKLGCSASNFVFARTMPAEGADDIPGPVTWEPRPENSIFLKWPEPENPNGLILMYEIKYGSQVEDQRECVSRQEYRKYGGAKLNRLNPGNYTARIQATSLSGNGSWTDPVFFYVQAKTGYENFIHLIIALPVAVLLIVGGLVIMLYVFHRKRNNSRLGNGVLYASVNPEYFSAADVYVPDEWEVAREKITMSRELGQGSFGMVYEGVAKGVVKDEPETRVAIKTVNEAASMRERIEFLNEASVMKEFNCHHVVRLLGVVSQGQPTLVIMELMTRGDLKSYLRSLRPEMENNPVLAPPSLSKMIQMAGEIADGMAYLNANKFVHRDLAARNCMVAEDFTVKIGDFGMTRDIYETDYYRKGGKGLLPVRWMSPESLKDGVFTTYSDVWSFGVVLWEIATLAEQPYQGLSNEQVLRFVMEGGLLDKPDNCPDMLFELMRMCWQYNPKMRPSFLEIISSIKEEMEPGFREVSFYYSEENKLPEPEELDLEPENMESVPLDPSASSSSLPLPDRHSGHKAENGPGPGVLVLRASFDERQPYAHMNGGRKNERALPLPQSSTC
Procedure: (§1) 1) Enzyme reaction substrate Poly(Glu, Tyr) 4:1 was diluted to 20 μg/mL with potassium-free PBS (10 mM sodium phosphate buffer, 150 mM NaCl, pH 7.2-7.4), and the microtiter plate was coated with 125 μL/well and placed at 37° C. for 12-16 hours of reaction. The liquid in the well was discard. The plate was washed three times with T-PBS (potassium-free PBS containing 0.1% Tween-20, 200 μL/well), 5 minutes each time. The ELISA plate was dried in an oven at 37° C. for 1 to 2 hours.
(§2) 2) Reaction buffer (50 mM HEPES pH 7.4, 50 mM MgCl2, 0.5 mM MnCl2, 0.2 mM Na3VO4, 1 mM DTT) diluted ATP solution (49 μL) was added to each well, 1 μL of the compound to be tested was added to each well, and then 50 μL of DDR2 kinase domain recombinant protein diluted in the reaction buffer was added to start the reaction. Two control wells without ATP were set in each experiment. The plate placed on a shaker (100 rpm) at 37° C. for 1 hour of reaction. The liquid in the well was discarded and the plate was washed three times with T-PBS.
(§3) 3) Antibody PY99 dilution solution (the antibody was diluted 1:500 with T-PBS containing BSA 5 mg/mL) was added at 100 μL/well, and shaken on a shaker at 37° C. for 0.5 hour of reaction. The liquid in the well was discarded and the plate was washed three times with T-PBS.
(§4) 4) Horseradish peroxidase labeled goat anti-murine secondary antibody dilution solution (the antibody is diluted 1:2000 with T-PBS containing BSA 5 mg/ml) was added at 100 μL/well, and shaken on a shaker at 37° C. for 0.5 hour of reaction. The liquid in the well was discarded and the plate was washed three times with T-PBS.
(§5) 5) 2 mg/ml of OPD color developing solution [diluted with 0.1 M citric acid-sodium citrate buffer (pH=5.4) containing 0.03% H2O2] was added at 100 μL/well and reacted for 1 to 10 minutes at 25° C. in the dark.
(§6) 6) 2M H2SO4 was added at 50 μL/well to stop the reaction, and a tunable wavelength microplate reader VERSAmax was used for reading at a wavelength of 490 nm.
(§7) The IC50 value was obtained by four-parameter regression using the software that came with the microplate reader. […]

EPH-A2 = EPH-A2 (Homo sapiens (Human), UniProt P29317); experiment: Enzyme selectivity test (ELISA), EPH-A2; type: biochemical
Chain of EPH-A2 (P29317 24-976, species assumed): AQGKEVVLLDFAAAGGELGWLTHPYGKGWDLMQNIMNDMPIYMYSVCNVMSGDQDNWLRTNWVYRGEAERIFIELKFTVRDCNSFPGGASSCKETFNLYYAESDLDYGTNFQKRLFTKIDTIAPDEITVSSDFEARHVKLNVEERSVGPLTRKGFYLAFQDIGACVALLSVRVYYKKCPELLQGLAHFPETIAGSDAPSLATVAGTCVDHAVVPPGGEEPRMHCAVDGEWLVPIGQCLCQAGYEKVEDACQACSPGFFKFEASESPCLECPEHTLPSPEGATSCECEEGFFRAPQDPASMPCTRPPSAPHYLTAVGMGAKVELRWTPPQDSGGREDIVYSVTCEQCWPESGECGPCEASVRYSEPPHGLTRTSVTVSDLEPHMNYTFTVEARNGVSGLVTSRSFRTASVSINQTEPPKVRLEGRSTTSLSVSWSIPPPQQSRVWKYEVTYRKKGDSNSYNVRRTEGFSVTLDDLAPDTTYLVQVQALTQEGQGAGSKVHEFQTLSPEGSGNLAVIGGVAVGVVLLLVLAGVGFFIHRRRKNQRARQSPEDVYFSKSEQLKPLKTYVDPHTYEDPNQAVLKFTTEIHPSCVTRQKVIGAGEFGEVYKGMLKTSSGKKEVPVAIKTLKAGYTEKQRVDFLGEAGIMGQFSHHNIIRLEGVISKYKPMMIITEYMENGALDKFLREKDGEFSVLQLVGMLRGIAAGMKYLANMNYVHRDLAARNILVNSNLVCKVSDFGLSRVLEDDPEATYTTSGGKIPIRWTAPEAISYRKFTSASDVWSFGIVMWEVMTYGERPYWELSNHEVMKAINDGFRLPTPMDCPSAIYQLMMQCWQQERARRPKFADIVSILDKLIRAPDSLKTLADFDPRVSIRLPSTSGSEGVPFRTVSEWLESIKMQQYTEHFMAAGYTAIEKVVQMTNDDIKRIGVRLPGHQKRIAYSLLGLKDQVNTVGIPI
Procedure: as §1, §2, §3, §4, §5, §6, §7

SMILES: O=C(Nc1cccc(C(F)(F)F)c1)c1ccc(C2CC2)c(-c2ccc3nc(Nc4cnn(C5CC5)c4)ncc3c2)c1 [Compound S15, 4-cyclopropyl-3-(2-((1-cyclopropyl-1H-pyrazol-4-yl)amino)quinazolin-6-yl)-N-(3-(trifluoromethyl)phenyl)benzamide]
- mRNA levels of pro-inflammatory cytokines TNF-α, IL-1β and IL-6 in lung tissue [1]: significantly reduce the levels of pro-inflammatory cytokines in a dose-dependent manner
- IC50 (IGF-1R): > 1000 nM
- IC50 (EPH-A2): > 10 nM

Source: patent publication US11655239B2 (SHANGHAI INSTITUTE OF MATERIAL MEDICA, CHINESE ACADEMY OF …, priority 2019, dated 2023)
